The nature of experiment [1]: Antiinflammatory activity in human neutrophils assessed as inhibition of FMLP/CB-induced superoxide anion release. It is filed as functional, cell-based. To be noted: Neutrophil.
Experiment [2] in a line: Antiinflammatory activity in human neutrophils assessed as inhibition of FMLP/CB-induced elastase release at 10 ug/ml. As to conditions: Neutrophil. It is filed as functional.
Experiment [3] can be described thus: Antiinflammatory activity in human neutrophils assessed as inhibition of FMLP/CB-induced elastase release. As to conditions: for IC50: Homo sapiens, Neutrophil. It counts as functional, cell-based, Neutrophil.
Another experiment deals with HepG2. The experiment is described as follows: Cytotoxicity against human HepG2 cells by MTT assay. It is filed as functional, cell-based. (In general: Formazan colour is commonly taken as a measure of viable cells.)
Experiment [4] can be described thus: Cytotoxicity against human Hep3B cells by MTT assay. It is filed as functional, cell-based, Hep 3B2.
A further experiment deals with Ca9-22. The experiment is described as follows: Cytotoxicity against human Ca9-22 cells by MTT assay. It is filed as functional, cell-based.
For a further experiment, the system named is A549. The experiment is described as follows: Cytotoxicity against human A549 cells by MTT assay. It is filed as functional, cell-based.
For another experiment, the system named is MCF7. The experiment is described as follows: Cytotoxicity against human MCF7 cells by MTT assay. It counts as functional, cell-based.
The test system of a further experiment is MDA-MB-231. The experiment is described as follows: Cytotoxicity against human MDA-MB-231 cells by MTT assay. It counts as functional, cell-based.
Experiment [5] is described as follows: Antiaggregatory activity in human platelets assessed as inhibition of collagen-induced platelet aggregation by aggregometry. It is filed as functional, cell-based.
The nature of experiment [6]: Antiaggregatory activity in human platelets assessed as inhibition of thrombin-induced platelet aggregation by aggregometry. It counts as functional, cell-based.
A short description of experiment [7]: Antiinflammatory activity in human Neutrophil assessed as inhibition of superoxide anion release at 10 ug/ml. It counts as functional, cell-based.
Experiment [8] in a line: Antiinflammatory activity in human Neutrophil assessed as inhibition of elastase release at 10 ug/ml. It counts as functional, cell-based.
Experiment [9] is described as follows: Antiinflammatory activity in human neutrophils assessed as inhibition of FMLP/CB-induced superoxide anion release at 10 ug/ml. It counts as functional. To be noted: Neutrophil.
Another experiment has as its system Neutrophil. The experiment is described as follows: Ratio of compound IC50 to PMSF IC50 for antiinflammatory activity in human neutrophils assessed as inhibition of FMLP/CB-induced elastase release. It is filed as functional.

Converted amounts (≈) assume the structure as drawn. Where a SMILES comes first, the peptide text is derived from it. The star is where a group is joined. Fmoc = O=C(OCC1c2ccccc2-c2ccccc21)*

By IC50 is commonly meant the concentration needed to halve the response being measured. As usually defined, the inhibition is the change of the read-out against control, counted positive when it falls.

Turning to `CC(=O)OC[C@]1(C)CCC[C@]2(C)[C@@H]1CC[C@]13C[C@H](CC[C@H]12)[C@@H](C(=O)O)C3`, the IC50 in experiment [1] came out at 5.11 µg/mL (≈ 14.1 µM). In addition, in experiment [2], the inhibition at 10 µg/mL is 44.7%.
For `Oc1ccc([C@]23Oc4cc(O)cc(O)c4[C@H](c4c(cc(O)c5c4O[C@@H](c4ccc(O)c(O)c4)[C@@H](O)C5)O2)[C@H]3O)cc1`, in experiment [3], the “inhibition (INH)” value is given as 2.5%.
Consider `CC1(C)CC[C@]2(C(=O)O)CC[C@]3(C)C(=CC[C@@H]4[C@@]5(C)CCC(=O)C(C)(C)[C@@H]5CC[C@]43C)[C@@H]2C1` [OLEANONIC ACID], for which the IC50 in the experiment with HepG2 was greater than 20 µg/mL; in experiment [4], greater than 20 µg/mL; in the experiment with Ca9-22, 18 µg/mL (≈ 39.7 µM); with A549 it was greater than 20 µg/mL; in the experiment with MCF7 it was greater than 20 µg/mL; in the experiment with MDA-MB-231, greater than 20 µg/mL.
Take `Oc1cc(O)c2c(c1)O[C@H](c1ccc(O)c(O)c1)[C@H](O)C2` [(-)-EPICATECHIN]: the values for the IC50 in experiment [5] and in experiment [6] were 22.2 µg/mL (≈ 76.5 µM) and greater than 50 µg/mL, respectively.
Consider `c1ccc2c(c1)[I+]c1ccccc1-2` [DIPHENYLENEIODONIUM], for which the IC50 in experiment [1] was determined as 0.35 µg/mL.
On to `O=S(=O)(F)Cc1ccccc1` [PHENYLMETHYLSULFONYLFLUORIDE], for which the IC50 in experiment [3] was 19.9 µg/mL (≈ 114 µM).
Take `COc1cc2ccc(=O)oc2cc1O` [SCOPOLETIN]: the results for the IC50 in experiment [5] and in experiment [6] were 41.7 µg/mL (≈ 217 µM) and greater than 50 µg/mL, respectively.
Take `C[C@H]1[C@H](C)CC[C@]2(C(=O)O)CC[C@]3(C)C(=CC[C@@H]4[C@@]5(C)CC[C@H](O)C(C)(C)[C@@H]5CC[C@]43C)[C@H]12` [URSOLIC ACID]: the IC50 in [5] is 34.5 µg/mL (≈ 75.6 µM); in [6] it was greater than 50 µg/mL; in [1] it was 0.29 µg/mL (≈ 0.635 µM); in experiment [3], 0.31 µg/mL (≈ 0.679 µM).
Regarding `C=C(C)[C@@H]1CC[C@]2(C(=O)O)CC[C@]3(C)[C@H](CC[C@@H]4[C@@]5(C)CCC(=O)C(C)(C)[C@@H]5CC[C@]43C)[C@@H]12` [BETUNOLIC ACID], the IC50 is 4.32 µg/mL (≈ 9.5 µM) in the experiment on HepG2; 13.8 µg/mL (≈ 30.4 µM) in experiment [4]; 14.5 µg/mL (≈ 31.8 µM) in the experiment with Ca9-22; 8.93 µg/mL (≈ 19.6 µM) in the experiment on A549; 19.3 µg/mL (≈ 42.5 µM) with MCF7; greater than 20 µg/mL with MDA-MB-231. Further, the IC50 in experiment [5] is 44.7 µg/mL (≈ 98.3 µM); in experiment [6], greater than 50 µg/mL; in [7], 16.8 µg/mL (≈ 36.9 µM); in experiment [8], 128 µg/mL (≈ 281 µM).
Take `CCCCCCCCCCCCCCCCCCCC(=O)OCC(O)CO` (centres undefined): in [1], the IC50 turned out to be 2.47 µg/mL (≈ 6.39 µM). Besides, the inhibition at 10 µg/mL in [2] was 41.8%.
For the compound `Oc1cc(O)c2c(c1)O[C@H](c1ccc(O)c(O)c1)[C@@H](O)C2` [CIANIDANOL], the results for the IC50 in [5] and in experiment [6] were 27.6 µg/mL (≈ 95.3 µM) and greater than 50 µg/mL, respectively.
`C=C(C)[C@@H]1CC[C@]2(C)CC[C@]3(C)[C@H](CC[C@@H]4[C@@]5(C)CC[C@H](O)C(C)(C)[C@@H]5CC[C@]43C)[C@@H]12` [LUPEOL]: the IC50 was 19.8 µg/mL (≈ 46.4 µM) in the experiment with HepG2; 18.8 µg/mL (≈ 44.1 µM) in experiment [4]; 16.8 µg/mL (≈ 39.3 µM) in the experiment with Ca9-22; greater than 20 µg/mL in the experiment on A549; greater than 20 µg/mL in the experiment with MCF7; greater than 20 µg/mL in the experiment on MDA-MB-231.
On to `C[C@H]1O[C@H](Oc2cc(O)c3c(=O)c(O)c(-c4ccc(O)cc4)oc3c2)[C@@H](O)[C@@H](O)[C@@H]1O`, for which the IC50 was 34.8 µg/mL (≈ 80.4 µM) in [5] and greater than 50 µg/mL in experiment [6].
Regarding `COc1cccc2c1C(=O)c1c(O)c3c(c(O)c1C2=O)C[C@@](O)(C(=O)CO)C[C@@H]3O[C@H]1C[C@H](N)[C@H](O)[C@H](C)O1` [DOXORUBICIN], the IC50 was 0.23 µg/mL (≈ 0.423 µM) with HepG2; 0.42 µg/mL (≈ 0.773 µM) in experiment [4]; 14.5 µg/mL (≈ 26.6 µM) in the experiment with Ca9-22; 0.63 µg/mL (≈ 1.16 µM) in the experiment with A549; 1.32 µg/mL (≈ 2.43 µM) in the experiment with MDA-MB-231.
As to `O=c1c(O)c(-c2ccc(O)cc2)oc2cc(O)cc(O)c12` [KAEMPFEROL], the IC50 with HepG2 is greater than 20 µg/mL; in experiment [4] it was 17.7 µg/mL (≈ 62 µM); in the experiment on Ca9-22, greater than 20 µg/mL; in the experiment with A549, greater than 20 µg/mL; with MCF7, greater than 20 µg/mL; with MDA-MB-231, greater than 20 µg/mL. Besides, the IC50 in experiment [5] was 3.55 µg/mL (≈ 12.4 µM); in experiment [6] it was greater than 50 µg/mL.
Regarding `C[C@@]1(CO)CCC[C@]2(C)[C@@H]1CC[C@]13C[C@H](CC[C@H]12)[C@@H](C(=O)O)C3`, the inhibition at 10 µg/mL was 31.8% in experiment [9] and 15.6% in [2].
With `CC(=O)Oc1ccccc1C(=O)O` [ASPIRIN], the IC50 was 13.6 µg/mL (≈ 75.4 µM) in experiment [5] and greater than 50 µg/mL in experiment [6].
With `O=c1cc(-c2ccc(O)c(O)c2)oc2cc(O)cc(O)c12` [LUTEOLIN], the IC50 with HepG2 turned out to be 7.36 µg/mL (≈ 25.7 µM); in experiment [4], 8.03 µg/mL (≈ 28.1 µM); in the experiment on Ca9-22 it was 8.55 µg/mL (≈ 29.9 µM); in the experiment with A549, 10.2 µg/mL (≈ 35.7 µM); in the experiment on MCF7, 9.5 µg/mL (≈ 33.2 µM); in the experiment on MDA-MB-231 it was 9.65 µg/mL (≈ 33.7 µM). Besides, the IC50 in experiment [5] was 2.56 µg/mL (≈ 8.94 µM); in experiment [6] it was greater than 50 µg/mL.
On to `C[C@@H]1O[C@@H](Oc2cc(O)c3c(=O)c(O[C@@H]4O[C@@H](C)[C@H](O)[C@@H](O)[C@H]4O)c(-c4ccc(O)cc4)oc3c2)[C@H](O)[C@H](O)[C@H]1O` [KAEMPFERITRIN], for which the inhibition at 10 µg/mL was determined as 8.27% in experiment [9] and 12.5% in experiment [2].
On to `COC(=O)[C@H](Cc1ccccc1)NC(=O)[C@@H](NC(=O)OCC1c2ccccc2-c2ccccc21)C(C)C` [IXORAPEPTIDE I] (Fmoc-Val-Phe-OMe), for which the IC50 is greater than 20 µg/mL in the experiment on HepG2; 3.36 µg/mL (≈ 6.71 µM) in experiment [4]; 20 µg/mL (≈ 40 µM) in the experiment on Ca9-22; greater than 20 µg/mL in the experiment with A549; greater than 20 µg/mL in the experiment with MCF7; greater than 20 µg/mL with MDA-MB-231. Besides, the figures for the IC50 in experiment [5] and in experiment [6] were 29.5 µg/mL (≈ 59 µM) and 20.5 µg/mL (≈ 41 µM), respectively.
Take `CC[C@H](C)[C@H](NC(=O)C(NC(=O)[C@H](Cc1ccccc1)N(C)C)C(C(C)C)n1ccc2ccccc21)C(=O)O` (some centres undefined) [IXORAPEPTIDE II]: the results for the IC50 in [1] and in [3] were 0.21 µg/mL (≈ 0.393 µM) and 0.27 µg/mL (≈ 0.505 µM), respectively. Also, the “Ratio IC50” value with Neutrophil was determined as 73.

The values above are taken from ChEMBL document CHEMBL1287809, “Ixorapeptide I and ixorapeptide II, bioactive peptides isolated from Ixora coccinea” (Bioorg Med Chem Lett, 2010).
